# Publication PMC10673369, “Preliminary SAR of Novel Pleuromutilin–Polyamine Conjugates” (Microorganisms, 2023)
# Experiments:
# MRSA ATCC 43300 = assay: MIC, CO-ADD broth microdilution, MRSA; format: cell-based, methicillin-resistant S. aureus; conditions: Staphylococcus aureus; MRSA ATCC 43300; mean (n = 2); read-out: MIC MRSA
# Procedure: (§1) The susceptibility of bacterial strains S. aureus (ATCC 25923), E. coli (ATCC 25922), and P. aeruginosa (ATCC 27853 or PAO1) to antibiotics and compounds was determined using reported protocols. Additional antimicrobial evaluation against MRSA (ATCC 43300), Klebsiella pneumoniae (ATCC 700603), A. baumannii (ATCC 19606), Candida albicans (ATCC 90028), and Cryptococcus neoformans (ATCC 208821) was undertaken at the Community for Open Antimicrobial Drug Discovery at The University of Queensland (Australia) according to their standard protocols as reported previously. […]
# (§2) 2.3. Antimicrobial Assays
# (§3) The susceptibility of bacterial strains S. aureus (ATCC 25923), E. coli (ATCC 25922), and P. […]
# (§4) baumannii (ATCC 19606), Candida albicans (ATCC 90028), and Cryptococcus neoformans (ATCC 208821) was undertaken at the Community for Open Antimicrobial Drug Discovery at The University of Queensland (Australia) according to their standard protocols as reported previously. For antimicrobial assays, the tested strains were cultured in either Luria broth (LB) (In Vitro Technologies, USB75852), nutrient broth (NB) (Becton Dickson, 234000), or MHB at 37 °C overnight. A sample of culture was then diluted 40-fold in fresh MHB and incubated at 37 °C for 1.5−2 h. The compounds were serially diluted 2-fold across the wells of 96-well plates (Corning 3641, non-binding surface), with compound concentrations ranging from 0.015 to 64 µg/ mL, and plated in duplicate. The resultant mid-log phase cultures were diluted to the final concentration of 1 × 10^6 CFU/mL; then, 50 µL was added to each well of the compound-containing plates, giving a final compound concentration range of 0.008 to 32 µg/mL and a cell density of 5 × 10^5 CFU/mL. All plates were then covered and incubated at 37 °C for 18 h. Resazurin was added at 0.001% final concentration to each well and incubated for 2 h before MICs […]
# (§5) For C. neoformans, resazurin was added at 0.006% final concentration to each well and incubated for a further 3 h before MICs were determined by measuring […]
# (§6) Colistin and vancomycin were used as positive bacterial inhibitor standards for Gram-negative and Gram-positive bacteria, respectively. Fluconazole was used as a positive fungal inhibitor standard for C. albicans and C. neoformans. The antibiotics were provided in […], with 3 above and 3 below its MIC value, and plated into the first 8 wells of column 23 of the 384-well NBS plates. The quality control (QC) of the assays was determined by the antimicrobial controls and the Z'-factor (using positive and negative controls). Each plate was deemed to fulfil the quality criteria (pass QC) if the Z'- […]
# (§7) inhibition at their highest concentration, and no growth inhibition at their lowest concentration.
# (§8) 2.4. Determination of the MICs of Antibiotics in the Presence of Synergizing Compounds
# P. aeruginosa PAO1 = assay: MIC, broth dilution, P. aeruginosa PAO1; format: cell-based; conditions: mean (n = 3); for MIC: Pseudomonas aeruginosa
# Procedure: as §1, §2
# The susceptibility of bacterial strains S. aureus (ATCC 25923), E. coli (ATCC 25922), and P. aeruginosa (ATCC 27853 or PAO1) to antibiotics and compounds was determined in microplates using the standard broth dilution method in accordance with the recommendations of the Comité de l’AntibioGramme de la Société Française de Microbiologie (CA-SFM). Briefly, the minimal inhibitory concentrations (MICs) were determined with an inoculum of 10^5 CFU in 200 µL of Mueller–Hinton broth (MHB) containing two-fold serial dilutions of each drug. The MIC was defined as the lowest […]
# determine all MICs, the measurements were independently repeated in triplicate. Additional antimicrobial evaluation against MRSA (ATCC 43300), Klebsiella pneumoniae (ATCC 700603), A. baumannii (ATCC 19606), Candida albicans (ATCC 90028), and Cryptococcus neoformans (ATCC 208821) was undertaken at the Community for Open Antimicrobial Drug Discovery at The University of Queensland (Australia) according to their standard protocols as reported previously. […]
# as §5, §6, §7, §8
# C. albicans ATCC 90028 = assay: MIC, CO-ADD antifungal assay, C. albicans; format: cell-based, Candida albicans; conditions: for MIC: Candida albicans, ATCC90028, mean (n = 2)
# Procedure: as §1, §2, §3
# (§9) baumannii (ATCC 19606), Candida albicans (ATCC 90028), and Cryptococcus neoformans (ATCC 208821) was undertaken at the Community for Open Antimicrobial Drug Discovery at The University of Queensland (Australia) according to their standard protocols as reported previously. […]
# (§10) For the antifungal assay, fungi strains were cultured for 3 days on YPD agar at 30 °C. A yeast suspension of 1 × 106 to 5 × 10^6 CFU/mL was prepared from five colonies. These stock suspensions were diluted with yeast nitrogen base (YNB) (Becton Dickinson, 233520) broth to a final concentration of 2.5 × 10^3 CFU/mL. The compounds were serially diluted 2-fold across the wells of 96-well plates (Corning 3641, non-binding surface), with compound concentrations ranging from 0.015 to 64 µg/mL and final volumes of 50 µL, plated in duplicate. Then, 50 µL of the fungi suspension that was previously prepared in YNB broth to the final concentration of 2.5 × 10^3 CFU/mL was added to each well of the compound-containing plates, giving a final compound concentration range of 0.008 to 32 µg/mL. Plates were covered and incubated at 35 °C for 36 h without shaking. C. albicans MICs were determined by measuring the absorbance at OD530. For C. neoformans, resazurin was added at 0.006% final concentration to each well and incubated for a further 3 h before MICs were determined by measuring […]
# as §6, §7, §8
# [1] = system: C. neoformans ATCC 208821; assay: MIC, CO-ADD antifungal assay, C. neoformans; format: cell-based, Cryptococcus neoformans; conditions: for MIC: Cryptococcus neoformans, ATCC208821, mean (n = 2)
# Procedure: as §1, §2, §3, §9, §10, §6, §7, §8
# A. baumannii ATCC 19606 = assay: MIC, CO-ADD broth microdilution, A. baumannii; format: cell-based; conditions: for MIC: Acinetobacter baumannii, ATCC19606, mean (n = 2)
# Procedure: as §1, §2, §3, §4, §5, §6, §7, §8
Structure (SMILES),MIC (MRSA ATCC 43300) [µM],MIC (P. aeruginosa PAO1) [µM],MIC P.a. (P. aeruginosa PAO1),MIC (C. albicans ATCC 90028) [µM],MIC C.a. (C. albicans ATCC 90028; mean (n = 2)),MIC [1] [µM],MIC C.n. ([1]; mean (n = 2)),MIC (A. baumannii ATCC 19606) [µM],MIC A.b. (A. baumannii ATCC 19606; mean (n = 2))
"C=C[C@]1(C)C[C@@H](OC(=O)CSCCN(CC)CC)[C@]2(C)[C@H](C)CC[C@]3(CCC(=O)[C@H]32)[C@@H](C)[C@@H]1O [Compound 2, Tiamulin, reference compound]",≤ 0.51,800,no activity,> 64.8,no activity,> 64.8,no activity,> 64.8,no activity
"C=C[C@]1(C)C[C@@H](OC(=O)CNCCCNCCCCNCCCNCC(=O)O[C@@H]2C[C@@](C)(C=C)[C@@H](O)[C@H](C)[C@]34CCC(=O)[C@H]3[C@@]2(C)[C@H](C)CC4)[C@]2(C)[C@H](C)CC[C@]3(CCC(=O)[C@H]32)[C@@H](C)[C@@H]1O.O=C(O)C(F)(F)F.O=C(O)C(F)(F)F.O=C(O)C(F)(F)F.O=C(O)C(F)(F)F [Compound 9a, N^1,N^1′-(Butane-1,4-diyl)bis(N^3-(2-(((3aR,4R,5R,7S,8S,9R,9aS,12R)-8-hydroxy-4,7,9,12-tetramethyl-3-oxo-7-vinyldecahydro-4,9a-propanocyclopenta [8]annulen-5-yl)oxy)-2-oxoethyl)propane-1,3-diaminium) 2,2,2-trifluoroacetate]",23.2,72.5,,> 23.2,,0.72,,> 23.2,
"C=C[C@]1(C)C[C@@H](OC(=O)CNCCCNCCCCCCNCCCNCC(=O)O[C@@H]2C[C@@](C)(C=C)[C@@H](O)[C@H](C)[C@]34CCC(=O)[C@H]3[C@@]2(C)[C@H](C)CC4)[C@]2(C)[C@H](C)CC[C@]3(CCC(=O)[C@H]32)[C@@H](C)[C@@H]1O.O=C(O)C(F)(F)F.O=C(O)C(F)(F)F.O=C(O)C(F)(F)F.O=C(O)C(F)(F)F [Compound 9b, N^1,N^1′-(Hexane-1,6-diyl)bis(N^3-(2-(((3aR,4R,5R,7S,8S,9R,9aS,12R)-8-hydroxy-4,7,9,12-tetramethyl-3-oxo-7-vinyldecahydro-4,9a-propanocyclopenta [8]annulen-5-yl)oxy)-2-oxoethyl)propane-1,3-diaminium) 2,2,2-trifluoroacetate]",≤ 0.18,142,,> 22.7,,≤ 0.18,,> 22.7,
"C=C[C@]1(C)C[C@@H](OC(=O)CNCCCNCCCCCCCNCCCNCC(=O)O[C@@H]2C[C@@](C)(C=C)[C@@H](O)[C@H](C)[C@]34CCC(=O)[C@H]3[C@@]2(C)[C@H](C)CC4)[C@]2(C)[C@H](C)CC[C@]3(CCC(=O)[C@H]32)[C@@H](C)[C@@H]1O.O=C(O)C(F)(F)F.O=C(O)C(F)(F)F.O=C(O)C(F)(F)F.O=C(O)C(F)(F)F [Compound 9c, N^1,N^1′-(Heptane-1,7-diyl)bis(N^3-(2-(((3aR,4R,5R,7S,8S,9R,9aS,12R)-8-hydroxy-4,7,9,12-tetramethyl-3-oxo-7-vinyldecahydro-4,9a-propanocyclopenta [8]annulen-5-yl)oxy)-2-oxoethyl)propane-1,3-diaminium) 2,2,2-trifluoroacetate]",≤ 0.18,> 141,,> 22.5,,≤ 0.18,,> 22.5,
"C=C[C@]1(C)C[C@@H](OC(=O)CNCCCNCCCCCCCCNCCCNCC(=O)O[C@@H]2C[C@@](C)(C=C)[C@@H](O)[C@H](C)[C@]34CCC(=O)[C@H]3[C@@]2(C)[C@H](C)CC4)[C@]2(C)[C@H](C)CC[C@]3(CCC(=O)[C@H]32)[C@@H](C)[C@@H]1O.O=C(O)C(F)(F)F.O=C(O)C(F)(F)F.O=C(O)C(F)(F)F.O=C(O)C(F)(F)F [Compound 9d, N^1,N^1′-(Octane-1,8-diyl)bis(N^3-(2-(((3aR,4R,5R,7S,8S,9R,9aS,12R)-8-hydroxy-4,7,9,12-tetramethyl-3-oxo-7-vinyldecahydro-4,9a-propanocyclopenta [8]annulen-5-yl)oxy)-2-oxoethyl)propane-1,3-diaminium) 2,2,2-trifluoroacetate]",5.57,> 139,,> 22.3,,≤ 0.17,,> 22.3,

# Next, values leading:
MIC (MRSA ATCC 43300) [µM],MIC (P. aeruginosa PAO1) [µM],MIC P.a. (P. aeruginosa PAO1),MIC (C. albicans ATCC 90028) [µM],MIC C.a. (C. albicans ATCC 90028; mean (n = 2)),MIC [1] [µM],MIC C.n. ([1]; mean (n = 2)),MIC (A. baumannii ATCC 19606) [µM],MIC A.b. (A. baumannii ATCC 19606; mean (n = 2)),Structure (SMILES)
≤ 0.17,> 88,,10.9,,≤ 0.17,,> 21.9,,"C=C[C@]1(C)C[C@@H](OC(=O)CNCCCNCCCCCCCCCCNCCCNCC(=O)O[C@@H]2C[C@@](C)(C=C)[C@@H](O)[C@H](C)[C@]34CCC(=O)[C@H]3[C@@]2(C)[C@H](C)CC4)[C@]2(C)[C@H](C)CC[C@]3(CCC(=O)[C@H]32)[C@@H](C)[C@@H]1O.O=C(O)C(F)(F)F.O=C(O)C(F)(F)F.O=C(O)C(F)(F)F.O=C(O)C(F)(F)F [Compound 9e, N^1,N^1′-(Decane-1,10-diyl)bis(N^3-(2-(((3aR,4R,5R,7S,8S,9R,9aS,12R)-8-hydroxy-4,7,9,12-tetramethyl-3-oxo-7-vinyldecahydro-4,9a-propanocyclopenta [8]annulen-5-yl)oxy)-2-oxoethyl)propane-1,3-diaminium) 2,2,2-trifluoroacetate]"
≤ 0.17,33.5,,21.5,,≤ 0.17,,2.7,,"C=C[C@]1(C)C[C@@H](OC(=O)CNCCCNCCCCCCCCCCCCNCCCNCC(=O)O[C@@H]2C[C@@](C)(C=C)[C@@H](O)[C@H](C)[C@]34CCC(=O)[C@H]3[C@@]2(C)[C@H](C)CC4)[C@]2(C)[C@H](C)CC[C@]3(CCC(=O)[C@H]32)[C@@H](C)[C@@H]1O.O=C(O)C(F)(F)F.O=C(O)C(F)(F)F.O=C(O)C(F)(F)F.O=C(O)C(F)(F)F [Compound 9f, N^1,N^1′-(Dodecane-1,12-diyl)bis(N^3-(2-(((3aR,4R,5R,7S,8S,9R,9aS,12R)-8-hydroxy-4,7,9,12-tetramethyl-3-oxo-7-vinyldecahydro-4,9a-propanocyclopenta [8]annulen-5-yl)oxy)-2-oxoethyl)propane-1,3-diaminium) 2,2,2-trifluoroacetate]"
